The text below walks through data of US10080757B2 (WISCONSIN ALUMNI RESEARCH FOUNDATION, priority 2016, dated 2018).

For test [1], the target named is T1, recombinant MtbUGM (Mycobacterium tuberculosis, UniProt P9WIQ1).
T1 construct: made in house
As to the kind of experiment: biochemical. The note with it: for inhibition at 100 µM: read-out: % inhib MtbUGM (100 μM).

The subject of test [2] is CeUGM. The test is described as follows: CeUGM inhibition. Format: biochemical, C. elegans.
The test system of test [3] is M. smegmatis. The test is described as follows: Microplate Alamar Blue Assay (MIC, liquid culture). Type of test: cell-based. The note with it: Mycolicibacterium smegmatis. As to the method: The culture was diluted to OD600=˜0.02 in LB liquid media and added to 96-well plates at a final volume of 100 μL, with added inhibitor concentrations in two-fold dilutions. Perimeter wells were filled with sterile water. After 24 hours at 37° C. in a shaking incubator, 10 μL of the Alamar Blue reagent was added to each well. The plate was incubated for an additional 4 hours at 37° C., at which point fluorescence emission at 585 nm was measured using a plate reader. The lowest inhibitor concentration at which 99% or greater growth inhibition was observed was determined to be the MIC.
A general note: Resazurin is reduced to fluorescent resorufin, in cell work by metabolically active cells.

For test [4], the system named is C. elegans. As to the kind of experiment: C. elegans growth and proliferation. Type of test: in vivo. The conditions noted are these: 250 μM.
The test system of test [5] is M. smegmatis. As to the kind of experiment: Agar disk diffusion assay. Details: zone of inhibition: dose or concentration left out as unconfirmed. The conditions noted are these: for zone of inhibition: Mycolicibacterium smegmatis, read-out: Inhibition zone; for Mycobacterial growth inhibition (in words): disk diffusion, solid media. In general terms: In agar diffusion tests the substance spreads into inoculated agar from a disc or well.
Experimental: M. smegmatis was grown to saturation over 48 hours at 37° C. in Middlebrook 7H9 media with Albumin Dextrose Catalase (ADC) enrichment and 0.05% Tween80. The culture was diluted to OD600=˜0.2 in LB liquid media and 100 μL of dilute culture was spread onto LB agar plates, then allowed to soak into the agar for 1 hour at room temperature. Sterile disks (3 mm diameter) were impregnated with a solution of inhibitor in DMSO (1.5 μL) and placed on top of the bacterial lawn. […] The plates were incubated for 72 hours at 37° C., at which point a lawn of bacteria was visible. Zones of inhibition were measured as the average diameter of the region around a cloning disk where bacterial growth was not visible. For each disk, three diameter measurements were taken and averaged.

Setting [6] is: Table 2, standard deviation, n = 3.
The mark [7] stands for this setting: Table 3, liquid media, at least 99% growth inhibition.
The mark [8] stands for this setting: 50 μM, mean of two replicates, read-out: % inhib MtbUGM (50 μM).

Structures are written as SMILES. ≈ marks a conversion by molar mass, not a printed value. Where two headings read alike, the source gives them in different places.

T1 sequence (P9WIQ1 whole entry): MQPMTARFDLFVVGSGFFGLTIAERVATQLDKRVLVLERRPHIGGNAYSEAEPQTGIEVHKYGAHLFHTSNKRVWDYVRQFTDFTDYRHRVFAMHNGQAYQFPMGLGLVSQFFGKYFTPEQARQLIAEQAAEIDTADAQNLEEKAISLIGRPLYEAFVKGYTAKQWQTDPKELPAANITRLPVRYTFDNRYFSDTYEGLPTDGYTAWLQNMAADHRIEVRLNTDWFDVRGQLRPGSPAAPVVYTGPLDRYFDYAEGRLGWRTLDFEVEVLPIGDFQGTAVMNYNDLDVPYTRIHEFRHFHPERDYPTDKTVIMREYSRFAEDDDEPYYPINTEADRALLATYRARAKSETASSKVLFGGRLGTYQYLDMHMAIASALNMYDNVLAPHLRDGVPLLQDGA

What is called IC50 is the concentration needed to halve the response being measured. One may read the MIC as the smallest concentration in the dilution series that meets the test's criterion for growth inhibition. Consider `Cc1ccc(S(=O)(=O)NC(=O)C(Cc2ccc(I)cc2)Nc2nc(-c3ccc(Cl)c(Cl)c3)cs2)cc1` (stereo not shown) [Compound 7, 2-((4-(3,4-dichlorophenyl)thiazol-2-yl)amino)-3-(4-iodophenyl)-N-tosylpropanamide], for which, in test [1] (setting [6]), the IC50 came out at 1 ± 1 µM. In test [2], the “CeUGM % Inhibition at 2.5 μM” value worked out at 90.5 ± 0.2%. This compound also returned a minimal inhibitory concentration (MIC) in test [3] (setting [7]) of 12.5 µM (≈ 8.4 µg/mL). Moreover, the “Effective inhibitor of C. elegans growth at 250 μM” value (shortened to “Effective inhibitor”) in test [4] (Table 7) is recorded as “No”. In addition, in test [5], the zone of inhibition amounted to 6 ± 0.6 mm and the “Mycobacterial growth inhibition (in words)” value was “inactivity”.

Consider `COc1ccc(S(=O)(=O)NC(=O)C(Cc2ccc(I)cc2)Nc2nc(-c3ccc(Cl)c(Cl)c3)cs2)cc1` (stereo not shown) [Compound 6, 2-((4-(3,4-dichlorophenyl)thiazol-2-yl)amino)-3-(4-iodophenyl)-N-((4-methoxyphenyl)sulfonyl)propanamide], for which, in test [1] (setting [6]), the IC50 came to 18 ± 9 µM. In addition, the “CeUGM % Inhibition at 2.5 μM” value in test [2] came to 92.4 ± 1.2%. Moreover, the MIC in test [3] (setting [7]) came to 25 µM (≈ 17.2 µg/mL). Further, the “Effective inhibitor” value in test [4] (Table 7) is listed as “No”. Besides, the zone of inhibition in test [5] came out at 6 ± 0.1 mm.

Turning to `COC(=O)CC1Sc2nnc(Cc3ccc(Br)cc3)n2N=C1c1ccc(Cl)cc1` (stereo not shown) [Compound 14, Methyl-2-(3-(4-bromobenzyl)-6-(4-chlorophenyl)-7H-[1,2,4]triazolo[3,4-b][1,3,4]thiadiazin-7-yl)acetate], the inhibition at 100 µM in test [1] (mean of two replicates) turned out to be 0%. Also, the “Effective inhibitor” value in test [4] (Table 8) is recorded as “No”.

On to `CS(=O)(=O)NC(=O)CC1Sc2nnc(Cc3ccc(Br)cc3)n2N=C1c1ccc(Cl)cc1` (stereo not shown) [Compound 12, 2-(3-(4-bromobenzyl)-6-(4-chlorophenyl)-7H-[1,2,4]triazolo[3,4-b][1,3,4]thiadiazin-7-yl)-N-(methylsulfonyl)acetamide], for which the inhibition at 50 µM in test [1] (setting [8]) was 50%. Besides, the inhibition at 100 µM in test [1] (mean of two replicates) is 58%. The IC50 in test [1] (Table 4) is 108 ± 42 µM. Also, the “CeUGM % Inhibition at 10 μM” value in test [2] is on record as 68.1 ± 2.1%. The compound also showed an MIC in test [3] (Table 4) of 500 µM (≈ 277 µg/mL). For the same compound, the “Effective inhibitor” value in test [4] (Table 8) is “No”.

For the compound `COC(=O)C(Cc1ccc(I)cc1)Nc1nc(-c2ccc(Cl)c(Cl)c2)cs1` (stereo not shown) [Compound 10, Methyl 2-((4-(3,4-dichlorophenyl)thiazol-2-yl)amino)-3-(4-iodophenyl)propanoate], in test [1] (50 μM compound (FIG. 1), read-out: Inhibition of MtbUGM activity), the inhibition at 50 µM came to 30%. The “Effective inhibitor” value in test [4] (Table 7) is “No”. Moreover, in test [5], the “Mycobacterial growth inhibition (in words)” value was “no mycobacterial growth inhibition was observed”.

As for `O=C(O)CC1Sc2nnc(Cc3ccc(Br)cc3)n2N=C1c1ccc(Cl)cc1` (stereo not shown) [Compound 11, 2-(3-(4-bromobenzyl)-6-(4-chlorophenyl)-7H-[1,2,4]triazolo[3,4-b][1,3,4]thiadiazin-7-yl)acetic acid], the inhibition at 50 µM in test [1] (setting [8]) amounted to 36%. Moreover, the inhibition at 100 µM in test [1] (mean of two replicates) was 72%. In addition, the IC50 in test [1] (Table 4) was 80 ± 29 µM. In addition, the “CeUGM % Inhibition at 10 μM” value in test [2] was 53.5 ± 3.0%. Further, in test [3] (Table 4), the MIC worked out at 500 µM (≈ 239 µg/mL). Further, the “Effective inhibitor” value in test [4] (Table 8) is given as “No”.

With `O=C(O)CC1Sc2nnc(Cc3ccc(-c4ccccc4)cc3)n2N=C1c1ccc(Cl)c(Cl)c1` (stereo not shown) [Compound 31, 2-(3-([1,1′-biphenyl]-4-ylmethyl)-6-(3,4-dichlorophenyl)-7H-[1,2,4]triazolo[3,4-b][1,3,4]thiadiazin-7-yl)acetic acid], the inhibition at 10 µM in test [1] (10 μM, mean of two replicates, read-out: % inhib MtbUGM (10 μM)) was found to be 50%. In addition, in test [1] (setting [8]), the inhibition at 50 µM was found to be 100%. Moreover, in test [1] (mean of two replicates), the inhibition at 100 µM was 100%.
